Measurements reported in patent US20230000842A1, “METHODS OF TREATING CARTILAGE DISORDERS THROUGH INHIBITION OF CLK AND DYRK” (SAMUMED, LLC, priority 2019, published 2023).

Legend:
CLK2 kinase = CLK2 kinase (Homo sapiens, UniProt P49760); assay: CLK2 kinase activity assay (Z-lyte FRET); type: biochemical; conditions: Z-lyte Ser/Thr 6 peptide, 60 μM ATP, 1 h at room temperature;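 also: FRET read-out as coumarin to fluorescein emission ratio, unphosphorylated peptide as 0% and phosphorylated peptide as 100% controls, duplicate reactions, non-linear regression fit of dose-response curves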
CLK2 kinase, sequence (P49760 whole entry): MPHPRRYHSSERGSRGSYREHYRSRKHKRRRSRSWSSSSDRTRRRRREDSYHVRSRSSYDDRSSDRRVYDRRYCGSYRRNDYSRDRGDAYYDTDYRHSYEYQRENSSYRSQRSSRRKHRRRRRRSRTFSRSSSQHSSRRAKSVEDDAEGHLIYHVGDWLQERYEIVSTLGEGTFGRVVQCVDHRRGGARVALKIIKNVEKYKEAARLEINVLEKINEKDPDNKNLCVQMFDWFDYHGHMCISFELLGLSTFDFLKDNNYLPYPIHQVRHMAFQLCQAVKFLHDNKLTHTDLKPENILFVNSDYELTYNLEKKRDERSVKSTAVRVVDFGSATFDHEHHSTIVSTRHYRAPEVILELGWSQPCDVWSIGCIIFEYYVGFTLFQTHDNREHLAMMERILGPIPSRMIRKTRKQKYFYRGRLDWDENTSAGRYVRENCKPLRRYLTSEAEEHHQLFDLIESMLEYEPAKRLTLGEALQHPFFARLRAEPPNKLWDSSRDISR

CLK3 kinase = CLK3 kinase (Homo sapiens, UniProt P49761); assay: CLK3 kinase activity assay (Z-lyte FRET); type: biochemical; conditions: Z-lyte Ser/Thr 18 peptide, 156 μM ATP, 1 h at room temperature;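 also: kinase activity read as coumarin/fluorescein emission ratio by FRET, unphosphorylated peptide as 0% and phosphorylated peptide as 100% control, values from non-linear regression of dose-response curves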
CLK3 kinase, sequence (P49761 whole entry): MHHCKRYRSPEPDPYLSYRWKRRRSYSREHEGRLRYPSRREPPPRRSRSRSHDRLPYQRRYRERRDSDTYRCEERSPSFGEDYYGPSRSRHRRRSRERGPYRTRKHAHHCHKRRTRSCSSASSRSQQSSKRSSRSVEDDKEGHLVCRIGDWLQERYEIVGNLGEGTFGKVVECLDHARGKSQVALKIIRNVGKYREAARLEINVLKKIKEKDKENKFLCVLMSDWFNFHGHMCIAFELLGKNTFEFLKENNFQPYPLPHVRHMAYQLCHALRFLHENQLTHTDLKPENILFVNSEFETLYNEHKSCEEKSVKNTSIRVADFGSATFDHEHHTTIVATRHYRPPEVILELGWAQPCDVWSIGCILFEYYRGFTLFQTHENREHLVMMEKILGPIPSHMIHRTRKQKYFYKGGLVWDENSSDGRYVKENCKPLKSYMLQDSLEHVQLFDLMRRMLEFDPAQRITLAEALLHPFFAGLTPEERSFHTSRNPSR

[1] = tested on: primary human mesenchymal stem cells (hMSCs); assay: Chondrogenesis screening using primary human mesenchymal stem cells; type: cell-based; conditions: Homo sapiens, Mesenchymal stem cells, hMSC chondrogenesis; for Emax: maximum activity relative to TGF-β3 (10 ng/mL) positive control, read-out: Max. Activity as % TGF-β3 activity; for EC50: concentration required to induce 50% levels of chondrogenesis with TGF-β3 as positive control, read-out: Conc (nM) of 50% TGF-β3 activity
In short: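 Primary hMSCs at passage 3–6 were treated across compound concentrations, with TGF-β3 as positive control. Chondrogenic nodule area per well was normalized to 3 DMSO wells on the same plate (fold over DMSO, 2–3 replicates). EC50, maximum activity and the dose reaching it were derived.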

[2] = tested on: Wnt pathway activity (SW480 colon carcinoma cells stably expressing the Sp5-Luc reporter); assay: Wnt pathway activity screening assay (Sp5-Luc reporter gene assay); conditions: Homo sapiens, SW480, Table 4; SW480 cells stably expressing Sp5-Luc reporter, 10-point dose-response from 10 μM, 36 to 48 hours

| Compound | EC50 (CLK2 kinase) [nM] | EC50 (CLK3 kinase) [nM] | EC50 [2] [nM] | EC50 [1] [nM] | Emax [1] [%] |
| --- | --- | --- | --- | --- | --- |
| Fc1cccc(-c2cncc3[nH]c(-c4n[nH]c5ncc(-c6cncc(CN7CCCCC7)c6)cc45)cc23)c1 [compound 313] | 18 | 295 | 3120 |  | 108 |
| O=C(Nc1cncc(-c2cc3c(-c4cc5c(-c6ccc(F)cc6)nccc5[nH]4)n[nH]c3cn2)c1)C1CC1 [compound 314] | 10 | 202 | 844 | 30 | 96.2 |
| Fc1ccc(-c2nccc3[nH]c(-c4n[nH]c5ccc(-c6cncc(CN7CCCC7)c6)cc45)cc23)cc1 [compound 315] | 3 | 139 | 3620 |  | 98.5 |
| Fc1ccc(-c2nccc3[nH]c(-c4n[nH]c5cnc(-c6cncc(CN7CCC(F)(F)C7)c6)cc45)cc23)cc1 [compound 316] | 7 | 417 | 291 | 10 | 61.2 |
| Fc1ccc(-c2cncc3[nH]c(-c4n[nH]c5cnc(-c6cncc(CN7CCC(F)(F)C7)c6)cc45)cc23)cc1 [compound 317] | 16 | 9840 | 3260 | 100 | 78.4 |
| Fc1ccc(-c2cncc3[nH]c(-c4n[nH]c5ncc(-c6cncnc6)cc45)cc23)cc1 [compound 319] | 6 | 817 | 594 |  | 23.8 |
| Nc1cncc(-c2ccc3[nH]nc(-c4cc5c(-c6ccccc6F)ccnc5[nH]4)c3c2)c1 [compound 320] | 9 | 33 | 131 |  | 23.5 |
| Nc1cncc(-c2cnc3[nH]nc(-c4cc5c(-c6ccccc6F)nccc5[nH]4)c3c2)c1 [compound 321] | 7 | 67 | 197 | 30 | 86 |
| Nc1cncc(-c2cnc3[nH]nc(-c4cc5c(-c6ccccc6F)ccnc5[nH]4)c3c2)c1 [compound 322] | 6 | 66 | 745 |  | 27.6 |
| Nc1cncc(-c2cc3c(-c4cc5c(-c6ccccc6F)nccc5[nH]4)n[nH]c3cn2)c1 [compound 323] | 2 | 59 | 224 | 10 | 117 |
| Nc1cncc(-c2cc3c(-c4cc5c(-c6ccccc6F)cncc5[nH]4)n[nH]c3cn2)c1 [compound 324] | 6 | 205 | 1630 |  | 15.5 |
| CC(C)CC(=O)Nc1cncc(-c2ccc3[nH]nc(-c4cc5c(-c6ccccc6F)nccc5[nH]4)c3n2)c1 [compound 326] | 10 | 144 | 605 |  | 36.3 |
| CC(C)(C)CC(=O)Nc1cncc(-c2cc3c(-c4cc5c(-c6ccccc6F)nccc5[nH]4)n[nH]c3cn2)c1 [compound 327] | 10 | 414 | 1030 | 30 | 54.3 |
| O=C(Nc1cncc(-c2cnc3[nH]nc(-c4cc5c(-c6ccccc6F)nccc5[nH]4)c3c2)c1)C1CC1 [compound 328] | 6 | 47 | 321 | 30 | 78.1 |
| O=C(Nc1cncc(-c2cnc3[nH]nc(-c4cc5c(-c6ccccc6F)cncc5[nH]4)c3c2)c1)C1CC1 [compound 329] | 8 | 42 | 390 |  | 52.1 |
| O=C(Nc1cncc(-c2ccc3[nH]nc(-c4cc5c(-c6ccccc6F)nccc5[nH]4)c3n2)c1)C1CC1 [compound 330] | 12 | 109 | 642 |  | 24.8 |
| O=C(Nc1cncc(-c2ccc3[nH]nc(-c4cc5c(-c6ccccc6F)nccc5[nH]4)c3c2)c1)C1CCCC1 [compound 331] | 15 | 158 | 418 |  | 70.8 |
| CC(C)Nc1cncc(-c2cnc3[nH]nc(-c4cc5c(-c6ccccc6F)nccc5[nH]4)c3c2)c1 [compound 332] | 6 | 196 | 435 | 10 | 75.8 |
| CCNCc1cncc(-c2cnc3[nH]nc(-c4cc5c(-c6ccccc6F)cncc5[nH]4)c3c2)c1 [compound 334] | 2 | 89 | 2300 |  | 37.3 |
| CCNCc1cncc(-c2cc3c(-c4cc5c(-c6ccccc6F)ccnc5[nH]4)n[nH]c3cn2)c1 [compound 335] | 19 | 2310 | > 10000 | 30 | 270 |
| CN(C)Cc1cncc(-c2cnc3[nH]nc(-c4cc5c(-c6ccccc6F)cncc5[nH]4)c3c2)c1 [compound 336] | 3 | 107 | 2490 |  | 60.9 |

Continued, in another order:

| EC50 (CLK2 kinase) [nM] | EC50 (CLK3 kinase) [nM] | EC50 [2] [nM] | EC50 [1] [nM] | Compound | Emax [1] [%] |
| --- | --- | --- | --- | --- | --- |
| 2 | 109 | 1370 | 30 | CN(C)Cc1cncc(-c2ccc3[nH]nc(-c4cc5c(-c6ccccc6F)cncc5[nH]4)c3n2)c1 [compound 337] | 50.6 |
| 5 | 222 | 1980 | 10 | Fc1ccccc1-c1nccc2[nH]c(-c3n[nH]c4cnc(-c5cncc(CN6CCCC6)c5)cc34)cc12 [compound 338] | 69.4 |
| 7 | 99 | 375 |  | Fc1ccccc1-c1cncc2[nH]c(-c3n[nH]c4ncc(-c5cn[nH]c5)cc34)cc12 [compound 339] | 51.1 |
| 10 | 785 | 30.5 | 10 | Fc1ccccc1-c1nccc2[nH]c(-c3n[nH]c4cnc(-c5cn[nH]c5)cc34)cc12 [compound 340] | 89.2 |
| 4 | 90 | > 10000 |  | c1cncc(-c2ccc3[nH]nc(-c4cc5c(-c6cccnc6)ccnc5[nH]4)c3c2)c1 [compound 342] | 16.7 |
| 3 | 468 | 1340 | 100 | c1cncc(-c2cc3c(-c4cc5c(-c6cccnc6)cncc5[nH]4)n[nH]c3cn2)c1 [compound 343] | 76.4 |
| 3 | 9840 | > 10000 | 100 | c1cncc(-c2ccc3[nH]nc(-c4cc5c(-c6cccnc6)ccnc5[nH]4)c3n2)c1 [compound 344] | 59.2 |
| 3 | 107 | 2250 |  | Cc1ccncc1-c1cnc2[nH]nc(-c3cc4c(-c5cccnc5)cncc4[nH]3)c2c1 [compound 345] | 17.4 |
| 4 | 133 | > 10000 | 10 | Cc1ccncc1-c1ccc2[nH]nc(-c3cc4c(-c5cccnc5)cncc4[nH]3)c2n1 [compound 346] | 149 |
| 3 | 538 | 180 | 10 | CCC(=O)Nc1cncc(-c2cnc3[nH]nc(-c4cc5c(-c6cccnc6)cccc5[nH]4)c3c2)c1 [compound 348] | 671 |
| 2 | 37 | 260 |  | CC(C)C(=O)Nc1cncc(-c2ccc3[nH]nc(-c4cc5c(-c6cccnc6)cncc5[nH]4)c3c2)c1 [compound 349] | 34.5 |
| 11 | 1900 | 275 | 10 | CC(C)C(=O)Nc1cncc(-c2cc3c(-c4cc5c(-c6cccnc6)cccc5[nH]4)n[nH]c3cn2)c1 [compound 350] | 201 |
| 4 | 9840 | > 10000 | 10 | CCCCC(=O)Nc1cncc(-c2cc3c(-c4cc5c(-c6cccnc6)ccnc5[nH]4)n[nH]c3cn2)c1 [compound 351] | 52.8 |
| 3 | 9840 | > 10000 |  | CC(C)CC(=O)Nc1cncc(-c2cnc3[nH]nc(-c4cc5c(-c6cccnc6)ccnc5[nH]4)c3c2)c1 [compound 352] | 43.5 |
| 3 | 85 | > 10000 |  | CC(C)(C)CC(=O)Nc1cncc(-c2cnc3[nH]nc(-c4cc5c(-c6cccnc6)cncc5[nH]4)c3c2)c1 [compound 353] | 37.3 |
| 12 | 537 | 330 | 100 | O=C(Nc1cncc(-c2cc3c(-c4cc5c(-c6cccnc6)cccc5[nH]4)n[nH]c3cn2)c1)C1CC1 [compound 354] | 308 |
| 8 | 151 | 202 |  | O=C(Nc1cncc(-c2cnc3[nH]nc(-c4cc5c(-c6cccnc6)cccc5[nH]4)c3c2)c1)C1CCC1 [compound 355] | 41.3 |
| 6 | 78 | 1350 |  | O=C(Nc1cncc(-c2ccc3[nH]nc(-c4cc5c(-c6cccnc6)cncc5[nH]4)c3c2)c1)C1CCCC1 [compound 356] | 45.5 |
| 3 | 43 | 421 |  | O=C(Nc1cncc(-c2ccc3[nH]nc(-c4cc5c(-c6cccnc6)nccc5[nH]4)c3c2)c1)c1ccccc1 [compound 357] | 19.4 |
